Among the data in ChEMBL document CHEMBL5728233, “PSMA imaging agents” (2021) are Ki values, retold here.

The target of this assay is Glutamate carboxypeptidase 2 (Homo sapiens, UniProt Q04609). Nature of the assay: Enzymatic Assay for In Vitro Evaluation of PSMA Inhibitors: The inhibitory activity of all compounds was determined using a fluorescent assay of human PSMA activity. The enzyme used in the assay was purchased from R&D Systems and stored at −80° C. The PSMA activity was assayed in a two-step process. In the first step, aliquots of enzyme (0.2 μg/mL) were incubated for 1 h at 37° C. in 50 mM HEPES, 0.1 M NaCl, pH 7.5, in the presence of 20 μM NAAG and the given inhibitor, in a volume of 250 μL, to allow for the accumulation of glutamate produced in the PSMA reaction. In the second step, the amount of accumulated glutamate was measured using the OPA reaction, and the fluorescence was read with a SpectraMax fluorescent plate reader using excitation at 330 nm and emission at 450 nm. The final Ki values for each inhibitor were calculated from the respective IC50 values using the Cheng and Prusoff equation.
Glutamate carboxypeptidase 2, sequence (Q04609 whole entry): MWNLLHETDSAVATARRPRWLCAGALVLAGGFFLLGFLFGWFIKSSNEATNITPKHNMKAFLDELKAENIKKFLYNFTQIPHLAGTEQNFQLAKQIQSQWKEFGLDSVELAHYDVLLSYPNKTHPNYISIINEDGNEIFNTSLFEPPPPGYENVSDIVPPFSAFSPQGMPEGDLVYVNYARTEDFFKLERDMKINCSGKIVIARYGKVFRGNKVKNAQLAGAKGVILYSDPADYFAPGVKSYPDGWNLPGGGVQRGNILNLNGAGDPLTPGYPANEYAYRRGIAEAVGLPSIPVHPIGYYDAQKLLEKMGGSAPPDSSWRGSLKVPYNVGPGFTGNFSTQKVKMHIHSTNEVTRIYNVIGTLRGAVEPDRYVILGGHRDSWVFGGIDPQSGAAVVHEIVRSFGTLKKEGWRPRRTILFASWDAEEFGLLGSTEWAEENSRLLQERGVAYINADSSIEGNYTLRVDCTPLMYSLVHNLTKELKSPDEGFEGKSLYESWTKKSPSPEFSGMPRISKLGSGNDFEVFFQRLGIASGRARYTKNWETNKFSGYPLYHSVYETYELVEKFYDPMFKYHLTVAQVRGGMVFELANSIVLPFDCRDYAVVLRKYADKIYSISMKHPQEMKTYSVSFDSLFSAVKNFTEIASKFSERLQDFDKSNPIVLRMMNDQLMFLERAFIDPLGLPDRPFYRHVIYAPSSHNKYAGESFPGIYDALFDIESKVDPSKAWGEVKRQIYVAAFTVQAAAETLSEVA

In general, Ki refers to the dissociation constant of the complex between target and ligand, obtained from inhibition or displacement. Take `CN(C(=O)N[C@@H](CCC(=O)O)C(=O)O)[C@@H](CCCCNC(=O)CCCCCn1cc(CCCF)nn1)C(=O)O`: the Ki is 625 nM.
